Measured values from PubChem BioAssay (NCI).
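96-well plates; 48 h exposure; 5 concentrations. Endpoints by linear interpolation between flanking doses. Not reached: highest tested concentration assigned. Definition used: TGI = concentration required for complete inhibition of growth.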

How the values were obtained:
Assay in all cases: NCI-60 cell line screen, 48 h
HOP-92 NSCLC = tested on: HOP-92 NSCLC
MDA-MB-435 = tested on: MDA-MB-435
NCI/ADR-RES ovarian = tested on: NCI/ADR-RES ovarian
EKVX NSCLC = tested on: EKVX NSCLC
UACC-62 melanoma = tested on: UACC-62 melanoma
HL-60(TB) leukemia = tested on: HL-60(TB) leukemia
MDA-N = tested on: MDA-N
MOLT-4 leukemia = tested on: MOLT-4 leukemia
CCRF-CEM leukemia = tested on: CCRF-CEM leukemia
U251 CNS = tested on: U251 CNS
RXF 393 renal = tested on: RXF 393 renal
RPMI-8226 leukemia = tested on: RPMI-8226 leukemia
SK-MEL-2 melanoma = tested on: SK-MEL-2 melanoma
NCI-H522 lung = tested on: NCI-H522 lung
A498 renal = tested on: A498 renal
IGROV1 ovarian = tested on: IGROV1 ovarian
A549 NSCLC = tested on: A549 NSCLC
HCC-2998 colon = tested on: HCC-2998 colon
HT29 colon = tested on: HT29 colon
SF-295 CNS = tested on: SF-295 CNS
SW-620 colon = tested on: SW-620 colon
T-47D breast = tested on: T-47D breast
SN12C renal = tested on: SN12C renal
PC-3 prostate = tested on: PC-3 prostate
HOP-62 NSCLC = tested on: HOP-62 NSCLC
COLO 205 colon = tested on: COLO 205 colon
UACC-257 melanoma = tested on: UACC-257 melanoma
K-562 leukemia = tested on: K-562 leukemia
TK-10 renal = tested on: TK-10 renal
OVCAR-5 ovarian = tested on: OVCAR-5 ovarian
HCT-15 colon = tested on: HCT-15 colon
786-0 renal = tested on: 786-0 renal
NCI-H23 lung = tested on: NCI-H23 lung
OVCAR-4 ovarian = tested on: OVCAR-4 ovarian
OVCAR-8 ovarian = tested on: OVCAR-8 ovarian
DU-145 prostate = tested on: DU-145 prostate
NCI-H460 lung = tested on: NCI-H460 lung
SK-MEL-5 melanoma = tested on: SK-MEL-5 melanoma
MALME-3M melanoma = tested on: MALME-3M melanoma
KM12 colon = tested on: KM12 colon
HS 578T breast = tested on: HS 578T breast
OVCAR-3 ovarian = tested on: OVCAR-3 ovarian
SK-MEL-28 melanoma = tested on: SK-MEL-28 melanoma
SF-268 CNS = tested on: SF-268 CNS
MCF7 breast = tested on: MCF7 breast
ACHN renal = tested on: ACHN renal
M14 melanoma = tested on: M14 melanoma
SR leukemia = tested on: SR leukemia
UO-31 renal = tested on: UO-31 renal
SNB-75 CNS = tested on: SNB-75 CNS
MDA-MB-231 breast = tested on: MDA-MB-231 breast
LOX IMVI melanoma = tested on: LOX IMVI melanoma
SK-OV-3 ovarian = tested on: SK-OV-3 ovarian
HCT-116 colon = tested on: HCT-116 colon
SF-539 CNS = tested on: SF-539 CNS
CAKI-1 renal = tested on: CAKI-1 renal
SNB-19 CNS = tested on: SNB-19 CNS
BT-549 breast = tested on: BT-549 breast
NCI-H226 lung = tested on: NCI-H226 lung

SMILES: CC(=O)Nc1ccc(C2SCc3nc4ccccc4n32)cc1 (stereo unspecified)
- TGI (HOP-92 NSCLC): > 100 µM
- TGI (MDA-MB-435): > 100 µM
- TGI (NCI/ADR-RES ovarian): > 100 µM
- TGI (EKVX NSCLC): > 100 µM
- TGI (UACC-62 melanoma): > 100 µM
- TGI (HL-60(TB) leukemia): > 100 µM
- TGI (MDA-N): > 100 µM
- TGI (MOLT-4 leukemia): > 100 µM
- TGI (CCRF-CEM leukemia): > 100 µM
- TGI (U251 CNS): > 100 µM
- TGI (RXF 393 renal): > 100 µM
- TGI (RPMI-8226 leukemia): > 100 µM
- TGI (SK-MEL-2 melanoma): > 100 µM
- TGI (NCI-H522 lung): > 100 µM
- TGI (A498 renal): 28.6 µM
- TGI (IGROV1 ovarian): > 100 µM
- TGI (A549 NSCLC): > 100 µM
- TGI (HCC-2998 colon): > 100 µM
- TGI (HT29 colon): > 100 µM
- TGI (SF-295 CNS): > 100 µM
- TGI (SW-620 colon): > 100 µM
- TGI (T-47D breast): > 100 µM
- TGI (SN12C renal): > 100 µM
- TGI (PC-3 prostate): > 100 µM
- TGI (HOP-62 NSCLC): > 100 µM
- TGI (COLO 205 colon): > 100 µM
- TGI (UACC-257 melanoma): > 100 µM
- TGI (K-562 leukemia): > 100 µM
- TGI (TK-10 renal): > 100 µM
- TGI (OVCAR-5 ovarian): > 100 µM
- TGI (HCT-15 colon): > 100 µM
- TGI (786-0 renal): > 100 µM
- TGI (NCI-H23 lung): > 100 µM
- TGI (OVCAR-4 ovarian): > 100 µM
- TGI (OVCAR-8 ovarian): > 100 µM
- TGI (DU-145 prostate): > 100 µM
- TGI (NCI-H460 lung): > 100 µM
- TGI (SK-MEL-5 melanoma): > 100 µM
- TGI (MALME-3M melanoma): > 86.8 µM
- TGI (KM12 colon): > 100 µM
- TGI (HS 578T breast): > 95.5 µM
- TGI (OVCAR-3 ovarian): > 100 µM
- TGI (SK-MEL-28 melanoma): > 100 µM
- TGI (SF-268 CNS): > 100 µM
- TGI (MCF7 breast): > 100 µM
- TGI (ACHN renal): > 100 µM
- TGI (M14 melanoma): > 100 µM
- TGI (SR leukemia): > 100 µM
- TGI (UO-31 renal): > 100 µM
- TGI (SNB-75 CNS): > 100 µM
- TGI (MDA-MB-231 breast): > 100 µM
- TGI (LOX IMVI melanoma): > 100 µM
- TGI (SK-OV-3 ovarian): > 100 µM
- TGI (HCT-116 colon): > 100 µM
- TGI (SF-539 CNS): > 100 µM
- TGI (CAKI-1 renal): > 100 µM
- TGI (SNB-19 CNS): > 100 µM
- TGI (BT-549 breast): > 74.6 µM

SMILES: CN(C)CCNC(=O)c1ccc(NC(=O)c2nc([N+](=O)[O-])cn2C)cc1
- TGI (HOP-92 NSCLC): > 100 µM
- TGI (MDA-MB-435): > 100 µM
- TGI (NCI/ADR-RES ovarian): > 100 µM
- TGI (UACC-62 melanoma): > 100 µM
- TGI (HL-60(TB) leukemia): > 100 µM
- TGI (MDA-N): > 100 µM
- TGI (MOLT-4 leukemia): > 100 µM
- TGI (CCRF-CEM leukemia): > 100 µM
- TGI (U251 CNS): > 100 µM
- TGI (RXF 393 renal): > 100 µM
- TGI (RPMI-8226 leukemia): > 100 µM
- TGI (SK-MEL-2 melanoma): > 100 µM
- TGI (NCI-H522 lung): > 100 µM
- TGI (A498 renal): > 100 µM
- TGI (IGROV1 ovarian): > 100 µM
- TGI (A549 NSCLC): > 100 µM
- TGI (HT29 colon): > 100 µM
- TGI (SF-295 CNS): > 100 µM
- TGI (SW-620 colon): > 100 µM
- TGI (T-47D breast): > 100 µM
- TGI (SN12C renal): > 100 µM
- TGI (PC-3 prostate): > 100 µM
- TGI (NCI-H226 lung): > 100 µM
- TGI (HOP-62 NSCLC): > 100 µM
- TGI (COLO 205 colon): > 100 µM
- TGI (UACC-257 melanoma): > 100 µM
- TGI (K-562 leukemia): > 100 µM
- TGI (TK-10 renal): > 100 µM
- TGI (OVCAR-5 ovarian): > 100 µM
- TGI (HCT-15 colon): > 100 µM
- TGI (786-0 renal): > 100 µM
- TGI (NCI-H23 lung): > 100 µM
- TGI (OVCAR-4 ovarian): > 100 µM
- TGI (OVCAR-8 ovarian): > 100 µM
- TGI (DU-145 prostate): > 100 µM
- TGI (NCI-H460 lung): > 100 µM
- TGI (SK-MEL-5 melanoma): > 100 µM
- TGI (MALME-3M melanoma): > 100 µM
- TGI (KM12 colon): > 100 µM
- TGI (HS 578T breast): > 100 µM
- TGI (OVCAR-3 ovarian): > 100 µM
- TGI (SK-MEL-28 melanoma): > 100 µM
- TGI (SF-268 CNS): > 100 µM
- TGI (MCF7 breast): > 100 µM
- TGI (ACHN renal): > 100 µM
- TGI (M14 melanoma): > 100 µM
- TGI (SR leukemia): > 100 µM
- TGI (UO-31 renal): > 100 µM
- TGI (SNB-75 CNS): > 100 µM
- TGI (MDA-MB-231 breast): > 100 µM
- TGI (LOX IMVI melanoma): > 100 µM
- TGI (SK-OV-3 ovarian): > 100 µM
- TGI (HCT-116 colon): > 100 µM
- TGI (SF-539 CNS): > 100 µM
- TGI (CAKI-1 renal): > 100 µM
- TGI (BT-549 breast): > 100 µM

SMILES: COC(=O)C(CCSC)NC(=O)Cc1ccc(C(=O)c2ccccc2)cc1 (stereo unspecified)
- TGI (HOP-92 NSCLC): > 100 µM
- TGI (MDA-MB-435): 93.6 µM
- TGI (NCI/ADR-RES ovarian): 91.5 µM
- TGI (EKVX NSCLC): > 100 µM
- TGI (UACC-62 melanoma): > 100 µM
- TGI (HL-60(TB) leukemia): > 100 µM
- TGI (MDA-N): 35.1 µM
- TGI (MOLT-4 leukemia): > 100 µM
- TGI (CCRF-CEM leukemia): > 100 µM
- TGI (U251 CNS): > 100 µM
- TGI (RXF 393 renal): > 100 µM
- TGI (RPMI-8226 leukemia): > 100 µM
- TGI (SK-MEL-2 melanoma): > 100 µM
- TGI (NCI-H522 lung): > 100 µM
- TGI (A498 renal): > 100 µM
- TGI (IGROV1 ovarian): > 100 µM
- TGI (A549 NSCLC): > 100 µM
- TGI (HCC-2998 colon): > 100 µM
- TGI (HT29 colon): 65.5 µM
- TGI (SF-295 CNS): > 100 µM
- TGI (SW-620 colon): > 100 µM
- TGI (T-47D breast): > 100 µM
- TGI (SN12C renal): > 100 µM
- TGI (PC-3 prostate): > 100 µM
- TGI (NCI-H226 lung): > 100 µM
- TGI (HOP-62 NSCLC): > 100 µM
- TGI (COLO 205 colon): > 100 µM
- TGI (UACC-257 melanoma): > 100 µM
- TGI (K-562 leukemia): > 100 µM
- TGI (OVCAR-5 ovarian): > 100 µM
- TGI (HCT-15 colon): > 100 µM
- TGI (786-0 renal): > 100 µM
- TGI (NCI-H23 lung): > 100 µM
- TGI (OVCAR-4 ovarian): > 100 µM
- TGI (OVCAR-8 ovarian): > 100 µM
- TGI (DU-145 prostate): > 100 µM
- TGI (NCI-H460 lung): > 100 µM
- TGI (SK-MEL-5 melanoma): > 100 µM
- TGI (MALME-3M melanoma): > 100 µM
- TGI (KM12 colon): > 100 µM
- TGI (HS 578T breast): > 100 µM
- TGI (OVCAR-3 ovarian): > 100 µM
- TGI (SK-MEL-28 melanoma): > 100 µM
- TGI (SF-268 CNS): > 100 µM
- TGI (MCF7 breast): > 100 µM
- TGI (ACHN renal): > 100 µM
- TGI (M14 melanoma): > 100 µM
- TGI (SR leukemia): > 100 µM
- TGI (UO-31 renal): > 100 µM
- TGI (SNB-75 CNS): > 100 µM
- TGI (MDA-MB-231 breast): > 100 µM
- TGI (LOX IMVI melanoma): > 100 µM
- TGI (SK-OV-3 ovarian): > 100 µM
- TGI (HCT-116 colon): > 100 µM
- TGI (CAKI-1 renal): > 100 µM
- TGI (SNB-19 CNS): > 100 µM
- TGI (BT-549 breast): > 100 µM
